# Measured values from patent US20250092039A1, “GLUTARIMIDE-CONTAINING PAN-KRAS-MUTANT DEGRADER COMPOUNDS AND USES THEREOF” (Tiger Biotherapeutics Inc., priority 2022, published 2025).
# Like-named read-outs stand apart in the source and are kept apart here.
# Tests used:
# KRAS-G12V/RAF1 = KRAS-G12V/RAF1 (Homo sapiens (Human), UniProt P01116, G12V); experiment: KRAS/RAF1 binding inhibition assay (AlphaScreen)
# Outline: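 IC50 comes from variable-slope nonlinear fits of % inhibition (relative to DMSO) against inhibitor concentration. The AlphaScreen signal tracks the interaction of GppNHp-bound KRAS G12V with the RAF1 RBD after 60 min at 4° C with compound in 2% DMSO final.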
# KRAS G12V = KRAS G12V (Homo sapiens (Human), UniProt P01116, G12V); experiment: KRAS G12V degradation in SW620 cells (Western blot, DC50); type: cell-based; conditions: 24 hours
# Outline: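 KRAS levels were quantified by fluorescent Western blot as percent of the DMSO control after 24 h of compound exposure at 37° C in homozygous KRAS G12V SW620 cells. A four-parameter variable-slope fit of the dose-response gave the half-maximal degradation concentration.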
# SW620 cells = experiment: 3D cell growth inhibition of SW620 cells carrying endogenous KRAS G12V mutation (CellTiter-Glo 3D, GI50); type: cell-based; conditions: Homo sapiens, SW-620, 144 h, read-out: SW620 3D cell growth GI50
# Outline: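 […], compound exposure lasted 6 days at 37° C, added the day after plating from DMSO stocks over a concentration range. Cells: SW620, KRAS G12V, 3D culture.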
# [1] = Pharmacokinetics following single intravenous and oral gavage dosing (AUC0-24h); type: in vivo; conditions: mouse, plasma, male CD-1 mice
# Experimental: Compounds disclosed herein were studied for animal tolerability and pharmacokinetics following single intravenous (iv) and oral gavage (po) dosing to male CD-1 mice. For each compound in each dosing route, 3 mice were used with iv dosing volume of 5 mL/kg and po dosing volume of 10 mL/kg. The compounds were formulated in 10% DMSO, 30% PEG400, 60% aqueous solution containing 20% 2-hydroxypropyl-β-cyclodextrin. Blood sampling time points for iv dosing were 0.083, 0.25, 0.5, 1, 2, 4, 8 and 24 h. The sampling time points for po dosing were 0.25, 0.5, 1, 2, 4, 6, 8 and 24 h. Mice activities were monitored and recorded immediately following the dosing. The prepared plasma samples were analyzed using LC/MS/MS on AB Sciex Triple Quad 5500+ system. The PK parameters were determined by non-compartmental analysis using WinNonlin (Version 8.0).
# Sequence of KRAS-G12V/RAF1 (P01116-2 other isoform, or with tags, fused parts or gaps G12V): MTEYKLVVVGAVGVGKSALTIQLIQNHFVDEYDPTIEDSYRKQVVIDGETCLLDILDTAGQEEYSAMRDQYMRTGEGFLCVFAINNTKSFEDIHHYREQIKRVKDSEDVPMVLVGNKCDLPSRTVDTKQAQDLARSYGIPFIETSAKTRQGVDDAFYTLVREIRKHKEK
# Sequence of KRAS G12V (P01116-2 other isoform, or with tags, fused parts or gaps G12V): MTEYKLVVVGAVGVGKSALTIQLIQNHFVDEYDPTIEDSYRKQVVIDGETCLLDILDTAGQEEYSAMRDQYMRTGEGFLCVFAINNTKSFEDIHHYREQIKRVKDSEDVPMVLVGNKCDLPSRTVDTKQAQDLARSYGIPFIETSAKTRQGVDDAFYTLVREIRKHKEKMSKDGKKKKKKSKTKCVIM
SMILES,IC50 (KRAS-G12V/RAF1),DC50 (KRAS G12V),GI50 (SW620 cells),AUC(0-t) ([1]; single oral dose 30 mg/Kg),AUC(0-t) ([1]; single oral dose 50 mg/Kg),"GI50 (SW620 cells; SW620 cells, 6 days)",AUC(0-t) ([1]; single oral dose 15 mg/Kg)
"CCc1c(F)ccc2cc(O)cc(-c3ncc4c(N5CCC[C@@](C)(O)C5)nc(OCC5(CN6CCC7(CC6)CC(F)(CN6CCN(c8ccc9c(c8)CN([C@H]8CCC(=O)NC8=O)C9=O)CC6)C7)CC5)nc4c3F)c12 [Compound 134, (S)-3-(5-(4-((7-((1-(((7-(8-ethyl-7-fluoro-3-hydroxynaphthalen-1-yl)-8-fluoro-4-((R)-3-hydroxy-3-methylpiperidin-1-yl)pyrido[4,3-d]pyrimidin-2-yl)oxy)methyl)cyclopropyl)methyl)-2-fluoro-7-azaspiro[3.5]nonan-2-yl)methyl)piperazin-1-yl)-1-oxoisoindolin-2-yl)piperidine-2,6-dione]",20 to 200 nM,< 1 nM,< 10 nM,982 ng·h/mL,1940 ng·h/mL,,
"CCc1c(F)ccc2cc(O)cc(-c3ncc4c(N5CCC[C@@](C)(O)C5)nc(OCC5(CN6CCC(OC7CC8(CCN(c9ccc%10c(c9)CN(C9CCC(=O)NC9=O)C%10=O)CC8)C7)CC6)CC5)nc4c3F)c12 (stereo partly drawn) [Compound 182, 3-[5-[2-[[1-[[1-[[7-(8-ethyl-7-fluoro-3-hydroxy-1-naphthyl)-8-fluoro-4-[(3R)-3-hydroxy-3-methyl-1-piperidyl]pyrido[4,3-d]pyrimidin-2-yl]oxymethyl]cyclopropyl]methyl]-4-piperidyl]oxy]-7-azaspiro[3.5]nonan-7-yl]-1-oxo-isoindolin-2-yl]piperidine-2,6-dione]",20 to 200 nM,< 1 nM,,4900 ng·h/mL,,< 10 nM,
"CCc1c(F)ccc2cc(O)cc(-c3ncc4c(N5CCC[C@@](C)(O)C5)nc(OCC5(CN6CCC(OC7CCC8(CC7)CN(c7ccc9c(c7)CN(C7CCC(=O)NC7=O)C9=O)C8)CC6)CC5)nc4c3F)c12 (stereo partly drawn) [Compound 184, 3-[5-[7-[[1-[[1-[[7-(8-ethyl-7-fluoro-3-hydroxy-1-naphthyl)-8-fluoro-4-[(3R)-3-hydroxy-3-methyl-1-piperidyl]pyrido[4,3-d]pyrimidin-2-yl]oxymethyl]cyclopropyl]methyl]-4-piperidyl]oxy]-2-azaspiro[3.5]nonan-2-yl]-1-oxo-isoindolin-2-yl]piperidine-2,6-dione]",> 200 nM,< 1 nM,,12500 ng·h/mL,,< 10 nM,
"CCc1c(F)ccc2cc(O)cc(-c3ncc4c(N5CCC[C@@](C)(O)C5)nc(OCC5(CN6CCC(C)(CN7CCC(N8CCN(c9ccc%10c(c9)CN([C@H]9CCC(=O)NC9=O)C%10=O)CC8)CC7)CC6)CC5)nc4c3F)c12 [Compound 213, (S)-3-(5-(4-(1-((1-((1-(((7-(8-ethyl-7-fluoro-3-hydroxynaphthalen-1-yl)-8-fluoro-4-((R)-3-hydroxy-3-methylpiperidin-1-yl)pyrido[4,3-d]pyrimidin-2-yl)oxy)methyl)cyclopropyl)methyl)-4-methylpiperidin-4-yl)methyl)piperidin-4-yl)piperazin-1-yl)-1-oxoisoindolin-2-yl)piperidine-2,6-dione]",< 20 nM,< 1 nM,,1360 ng·h/mL,,< 10 nM,
"CCc1c(F)ccc2cc(O)cc(-c3ncc4c(N5CCC[C@]6(CCO6)C5)nc(OCC5(CN6CCC7(CC6)CC(F)(CN6CCN(c8ccc9c(c8)CN([C@H]8CCC(=O)NC8=O)C9=O)CC6)C7)CC5)nc4c3F)c12 [Compound 214, (S)-3-(5-(4-((7-((1-(((7-(8-ethyl-7-fluoro-3-hydroxynaphthalen-1-yl)-8-fluoro-4-((S)-1-oxa-6-azaspiro[3.5]nonan-6-yl)pyrido[4,3-d]pyrimidin-2-yl)oxy)methyl)cyclopropyl)methyl)-2-fluoro-7-azaspiro[3.5]nonan-2-yl)methyl)piperazin-1-yl)-1-oxoisoindolin-2-yl)piperidine-2,6-dione]",20 to 200 nM,< 1 nM,,1460 ng·h/mL,,< 10 nM,
"CCc1c(F)ccc2cc(O)cc(-c3ncc4c(N5CCC[C@]6(CCO6)C5)nc(OCC5(CN6CCC7(CC6)CC(F)(CN6CCN(c8cc(F)c(C9CCC(=O)NC9=O)c(F)c8)CC6)C7)CC5)nc4c3F)c12 (stereo partly drawn) [Compound 215, 3-(4-(4-((7-((1-(((7-(8-ethyl-7-fluoro-3-hydroxynaphthalen-1-yl)-8-fluoro-4-((S)-1-oxa-6-azaspiro[3.5]nonan-6-yl)pyrido[4,3-d]pyrimidin-2-yl)oxy)methyl)cyclopropyl)methyl)-2-fluoro-7-azaspiro[3.5]nonan-2-yl)methyl)piperazin-1-yl)-2,6-difluorophenyl)piperidine-2,6-dione]",20 to 200 nM,< 1 nM,,4710 ng·h/mL,,< 10 nM,
"CCc1c(F)ccc2cc(O)cc(-c3ncc4c(N5CCC[C@]6(CCO6)C5)nc(OCC5(CN6CCC(CN7CCN(c8cc(F)c(C9CCC(=O)NC9=O)c(F)c8)CC7)CC6)CC5)nc4c3F)c12 (stereo partly drawn) [Compound 216, 3-(4-(4-((1-((1-(((7-(8-ethyl-7-fluoro-3-hydroxynaphthalen-1-yl)-8-fluoro-4-((S)-1-oxa-6-azaspiro[3.5]nonan-6-yl)pyrido[4,3-d]pyrimidin-2-yl)oxy)methyl)cyclopropyl)methyl)piperidin-4-yl)methyl)piperazin-1-yl)-2,6-difluorophenyl)piperidine-2,6-dione]",> 200 nM,1 to 10 nM,,,,< 10 nM,2140 ng·h/mL
"CCc1c(F)ccc2cc(O)cc(-c3ncc4c(N5CCC[C@]6(CCO6)C5)nc(OCC5(CN6CCC(C)(CN7CCN(c8ccc9c(c8)CN([C@H]8CCC(=O)NC8=O)C9=O)CC7)CC6)CC5)nc4c3F)c12 [Compound 217, (S)-3-(5-(4-((1-((1-(((7-(8-ethyl-7-fluoro-3-hydroxynaphthalen-1-yl)-8-fluoro-4-((S)-1-oxa-6-azaspiro[3.5]nonan-6-yl)pyrido[4,3-d]pyrimidin-2-yl)oxy)methyl)cyclopropyl)methyl)-4-methylpiperidin-4-yl)methyl)piperazin-1-yl)-1-oxoisoindolin-2-yl)piperidine-2,6-dione]",20 to 200 nM,< 1 nM,,,,< 10 nM,977 ng·h/mL
"CCc1c(F)ccc2cc(O)cc(-c3ncc4c(N5CCC[C@]6(CCO6)C5)nc(OCC5(CN6CCC7(CCC(N8CCN(c9ccc%10c(c9)CN([C@H]9CCC(=O)NC9=O)C%10=O)CC8)CC7)CC6)CC5)nc4c3F)c12 [Compound 219, (S)-3-(5-(4-(3-((1-(((7-(8-ethyl-7-fluoro-3-hydroxynaphthalen-1-yl)-8-fluoro-4-((S)-1-oxa-6-azaspiro[3.5]nonan-6-yl)pyrido[4,3-d]pyrimidin-2-yl)oxy)methyl)cyclopropyl)methyl)-3-azaspiro[5.5]undecan-9-yl)piperazin-1-yl)-1-oxoisoindolin-2-yl)piperidine-2,6-dione]",< 20 nM,< 1 nM,,718 ng·h/mL,,< 10 nM,
